Measured values reported in patent publication US20100267561A1, “HERBICIDAL PYRIDAZINONE DERIVATIVES” (priority 2007, published 2010).

Assays:
Type in all cases: in vivo
[1] = system: barnyardgrass (Echinochloa crus-galli); assay: Test A pre-/postemergence plant response
Summary of the method: (§1)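 Greenhouse pot test: loam–sand soil; pre- and postemergence sprays applied same day; post plants 2–10 cm, 1–2 leaves. Readout ~10 d, visual % injury vs untreated (0 = none, 100 = complete control).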

[2] = system: corn (Zea mays); assay: Test A pre-/postemergence plant response
Summary of the method: as §1

[3] = system: giant foxtail (Setaria faberi); assay: Test A pre-/postemergence plant response
Summary of the method: as §1

[4] = system: large crabgrass (Digitaria sanguinalis); assay: Test A pre-/postemergence plant response
Summary of the method: as §1

[5] = system: morningglory (Ipomoea coccinea); assay: Test A pre-/postemergence plant response
Summary of the method: as §1

[6] = system: pigweed (Amaranthus retroflexus); assay: Test A pre-/postemergence plant response
Summary of the method: as §1

[7] = system: velvetleaf (Abutilon theophrasti); assay: Test A pre-/postemergence plant response
Summary of the method: as §1

[8] = system: wheat (Triticum aestivum); assay: Test A pre-/postemergence plant response
Summary of the method: as §1

[9] = system: green foxtail (Setaria viridis); assay: Test B pre-/postemergence plant response; conditions: for Foxtail, Green plant response rating: 8 g ai/ha
Summary of the method: (§2)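 Visual scoring from 0 (no effect) to 100 (complete control) against untreated controls was done 13 to 15 days after greenhouse treatment. Chemicals were formulated in a surfactant-containing non-phytotoxic solvent and applied to soil preemergence or to 1- to 4-leaf (2-18 cm) plants postemergence.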

[10] = system: johnsongrass (Sorghum halepense); assay: Test B pre-/postemergence plant response; conditions: for Johnsongrass plant response rating: 8 g ai/ha
Summary of the method: as §2

[11] = system: wheat (Triticum aestivum); assay: Test B pre-/postemergence plant response; conditions: for Wheat plant response rating: 8 g ai/ha
Summary of the method: as §2

[12] = Postemergence, 31 g ai/ha, 0 to 100 scale (0 no effect, 100 complete control)
[13] = Postemergence, 125 g ai/ha, 0 to 100 scale, 0 no effect, 100 complete control
[14] = Preemergence, 31 g ai/ha, 0 to 100 scale, 0 is no effect, 100 is complete control
[15] = Preemergence, 125 g ai/ha, 0 to 100 scale (0 no effect, 100 complete control)
[16] = Postemergence, 16 g ai/ha, scale 0 to 100
[17] = Postemergence, 31 g ai/ha, scale 0 to 100, 0 no effect, 100 complete control
[18] = Postemergence, 62 g ai/ha, scale 0 to 100, 0 no effect, 100 complete control
[19] = Preemergence, 16 g ai/ha, scale 0 to 100 (0 no effect, 100 complete control)
[20] = Preemergence, 31 g ai/ha, 0 to 100 scale, 0 no effect, 100 complete control
[21] = Preemergence, 62 g ai/ha, scale 0 to 100
[22] = Preemergence, 31 g ai/ha, scale 0 to 100 (0 no effect, 100 complete control)
[23] = Preemergence, 62 g ai/ha, 0 to 100 scale, 0 no effect, 100 complete control
[24] = Postemergence, 31 g ai/ha, scale 0 to 100

CCc1cc(-c2ccc(Cl)cc2)nn1-c1c(OC(=O)C(C)(C)C)cnn(C)c1=O [Compound 40]
Plant response rating, Barnyardgrass [1, 12]: 100 | Plant response rating, Barnyardgrass [1, 13]: 100 | Plant response rating, Barnyardgrass [1, 14]: 100 | Plant response rating, Barnyardgrass [1, 15]: 100 | Plant response rating, Corn [2, 12]: 90 | Plant response rating, Corn [2, 13]: 100 | Plant response rating, Corn [2, 14]: 30 | Plant response rating, Corn [2, 15]: 90 | Plant response rating, Foxtail, Giant [3, 12]: 100 | Plant response rating, Foxtail, Giant [3, 13]: 100 | Plant response rating, Foxtail, Giant [3, 14]: 100 | Plant response rating, Foxtail, Giant [3, 15]: 100 | Plant response rating, Crabgrass, Large [4, 12]: 70 | Plant response rating, Crabgrass, Large [4, 13]: 100 | Plant response rating, Crabgrass, Large [4, 14]: 70 | Plant response rating, Crabgrass, Large [4, 15]: 100 | Plant response rating, Morningglory [5, 12]: 0 | Plant response rating, Morningglory [5, 13]: 0 | Plant response rating, Morningglory [5, 14]: 0 | Plant response rating, Morningglory [5, 15]: 0 | Plant response rating, Pigweed [6, 12]: 0 | Plant response rating, Pigweed [6, 13]: 0 | Plant response rating, Pigweed [6, 14]: 0 | Plant response rating, Velvetleaf [7, 12]: 0 | Plant response rating, Velvetleaf [7, 13]: 0 | Plant response rating, Velvetleaf [7, 14]: 0 | Plant response rating, Velvetleaf [7, 15]: 0 | Plant response rating, Wheat [8, 12]: 70 | Plant response rating, Wheat [8, 13]: 90 | Plant response rating, Wheat [8, 14]: 50 | Plant response rating, Wheat [8, 15]: 90 | Foxtail, Green plant response rating ([9]; postemergence, 0-100 scale): 85 | Plant response rating, Foxtail, Green [9, 16]: 95 | Plant response rating, Foxtail, Green [9, 17]: 100 | Plant response rating, Foxtail, Green [9, 18]: 100 | Plant response rating, Foxtail, Green [9, 19]: 100 | Plant response rating, Foxtail, Green [9, 20]: 100 | Plant response rating, Foxtail, Green [9, 21]: 100 | Foxtail, Green plant response rating ([9]; Preemergence, scale 0 to 100): 90 | Johnsongrass plant response rating ([10]; postemergence, 0-100 scale): 0 | Plant response rating, Johnsongrass [10, 16]: 0 | Plant response rating, Johnsongrass [10, 17]: 98 | Plant response rating, Johnsongrass [10, 18]: 100 | Plant response rating, Johnsongrass [10, 19]: 95 | Plant response rating, Johnsongrass [10, 20]: 98 | Plant response rating, Johnsongrass [10, 21]: 98 | Johnsongrass plant response rating ([10]; Preemergence, scale 0 to 100): 90 | Wheat plant response rating ([11]; postemergence, 0-100 scale): 70 | Plant response rating, Wheat [11, 16]: 70 | Plant response rating, Wheat [11, 18]: 100 | Plant response rating, Wheat [11, 19]: 60 | Plant response rating, Wheat [11, 22]: 60 | Plant response rating, Wheat [11, 23]: 90 | Wheat plant response rating ([11]; Preemergence, scale 0 to 100): 5

Cc1cc(-c2ccc(Cl)cc2)nn1-c1c(OC(=O)c2ccccc2)cnn(C)c1=O [Compound 48]
Plant response rating, Barnyardgrass [1, 12]: 20 | Plant response rating, Barnyardgrass [1, 13]: 90 | Plant response rating, Barnyardgrass [1, 14]: 60 | Plant response rating, Barnyardgrass [1, 15]: 100 | Plant response rating, Corn [2, 12]: 20 | Plant response rating, Corn [2, 13]: 60 | Plant response rating, Corn [2, 15]: 80 | Plant response rating, Foxtail, Giant [3, 12]: 30 | Plant response rating, Foxtail, Giant [3, 13]: 80 | Plant response rating, Foxtail, Giant [3, 14]: 90 | Plant response rating, Foxtail, Giant [3, 15]: 100 | Plant response rating, Crabgrass, Large [4, 12]: 20 | Plant response rating, Crabgrass, Large [4, 13]: 80 | Plant response rating, Crabgrass, Large [4, 14]: 60 | Plant response rating, Crabgrass, Large [4, 15]: 100 | Plant response rating, Morningglory [5, 12]: 0 | Plant response rating, Morningglory [5, 13]: 0 | Plant response rating, Morningglory [5, 14]: 0 | Plant response rating, Morningglory [5, 15]: 0 | Plant response rating, Pigweed [6, 12]: 20 | Plant response rating, Pigweed [6, 13]: 30 | Plant response rating, Pigweed [6, 14]: 0 | Plant response rating, Pigweed [6, 15]: 0 | Plant response rating, Velvetleaf [7, 12]: 20 | Plant response rating, Velvetleaf [7, 13]: 70 | Plant response rating, Velvetleaf [7, 14]: 0 | Plant response rating, Velvetleaf [7, 15]: 0 | Plant response rating, Wheat [8, 12]: 0 | Plant response rating, Wheat [8, 13]: 60 | Plant response rating, Wheat [8, 14]: 30 | Plant response rating, Wheat [8, 15]: 80 | Foxtail, Green plant response rating ([9]; postemergence, 0-100 scale): 70 | Plant response rating, Foxtail, Green [9, 16]: 98 | Plant response rating, Foxtail, Green [9, 24]: 100 | Plant response rating, Foxtail, Green [9, 18]: 100 | Plant response rating, Foxtail, Green [9, 19]: 80 | Plant response rating, Foxtail, Green [9, 20]: 100 | Plant response rating, Foxtail, Green [9, 21]: 100 | Foxtail, Green plant response rating ([9]; Preemergence, scale 0 to 100): 30 | Johnsongrass plant response rating ([10]; postemergence, 0-100 scale): 65 | Plant response rating, Johnsongrass [10, 16]: 75 | Plant response rating, Johnsongrass [10, 24]: 100 | Plant response rating, Johnsongrass [10, 18]: 100 | Plant response rating, Johnsongrass [10, 19]: 60 | Plant response rating, Johnsongrass [10, 20]: 75 | Plant response rating, Johnsongrass [10, 21]: 80 | Johnsongrass plant response rating ([10]; Preemergence, scale 0 to 100): 40 | Wheat plant response rating ([11]; postemergence, 0-100 scale): 0 | Plant response rating, Wheat [11, 16]: 50 | Plant response rating, Wheat [11, 24]: 95 | Plant response rating, Wheat [11, 18]: 98 | Plant response rating, Wheat [11, 19]: 0 | Plant response rating, Wheat [11, 22]: 5 | Plant response rating, Wheat [11, 23]: 60 | Wheat plant response rating ([11]; Preemergence, scale 0 to 100): 0

CCc1cc(-c2ccc(Cl)cc2)nn1-c1c(OC(=O)OC(C)C)cnn(C)c1=O [Compound 41]
Plant response rating, Barnyardgrass [1, 12]: 80 | Plant response rating, Barnyardgrass [1, 13]: 100 | Plant response rating, Barnyardgrass [1, 14]: 100 | Plant response rating, Barnyardgrass [1, 15]: 100 | Plant response rating, Corn [2, 12]: 60 | Plant response rating, Corn [2, 13]: 90 | Plant response rating, Corn [2, 14]: 30 | Plant response rating, Corn [2, 15]: 90 | Plant response rating, Foxtail, Giant [3, 12]: 70 | Plant response rating, Foxtail, Giant [3, 13]: 90 | Plant response rating, Foxtail, Giant [3, 14]: 90 | Plant response rating, Foxtail, Giant [3, 15]: 100 | Plant response rating, Crabgrass, Large [4, 12]: 20 | Plant response rating, Crabgrass, Large [4, 13]: 90 | Plant response rating, Crabgrass, Large [4, 14]: 80 | Plant response rating, Crabgrass, Large [4, 15]: 100 | Plant response rating, Morningglory [5, 12]: 0 | Plant response rating, Morningglory [5, 13]: 0 | Plant response rating, Morningglory [5, 14]: 0 | Plant response rating, Morningglory [5, 15]: 0 | Plant response rating, Pigweed [6, 12]: 0 | Plant response rating, Pigweed [6, 13]: 0 | Plant response rating, Pigweed [6, 14]: 0 | Plant response rating, Pigweed [6, 15]: 0 | Plant response rating, Velvetleaf [7, 12]: 0 | Plant response rating, Velvetleaf [7, 13]: 0 | Plant response rating, Velvetleaf [7, 14]: 0 | Plant response rating, Velvetleaf [7, 15]: 0 | Plant response rating, Wheat [8, 12]: 60 | Plant response rating, Wheat [8, 13]: 70 | Plant response rating, Wheat [8, 14]: 50 | Plant response rating, Wheat [8, 15]: 80 | Foxtail, Green plant response rating ([9]; postemergence, 0-100 scale): 85 | Plant response rating, Foxtail, Green [9, 16]: 100 | Plant response rating, Foxtail, Green [9, 17]: 100 | Plant response rating, Foxtail, Green [9, 18]: 100 | Plant response rating, Foxtail, Green [9, 19]: 100 | Plant response rating, Foxtail, Green [9, 20]: 100 | Plant response rating, Foxtail, Green [9, 21]: 100 | Foxtail, Green plant response rating ([9]; Preemergence, scale 0 to 100): 100 | Johnsongrass plant response rating ([10]; postemergence, 0-100 scale): 50 | Plant response rating, Johnsongrass [10, 16]: 50 | Plant response rating, Johnsongrass [10, 17]: 60 | Plant response rating, Johnsongrass [10, 18]: 75 | Plant response rating, Johnsongrass [10, 19]: 65 | Plant response rating, Johnsongrass [10, 20]: 70 | Plant response rating, Johnsongrass [10, 21]: 95 | Johnsongrass plant response rating ([10]; Preemergence, scale 0 to 100): 20 | Wheat plant response rating ([11]; postemergence, 0-100 scale): 80 | Plant response rating, Wheat [11, 16]: 85 | Plant response rating, Wheat [11, 18]: 85 | Plant response rating, Wheat [11, 19]: 15 | Plant response rating, Wheat [11, 22]: 60 | Plant response rating, Wheat [11, 23]: 100 | Wheat plant response rating ([11]; Preemergence, scale 0 to 100): 10
